Assay results published in patent publication US7842324B2 (Senomyx, Inc., priority 2005, dated 2010).

Target: T1, hT1R2/hT1R3 sweet receptor expressed in HEK293 cell line (Homo sapiens, UniProt Q7RTX0+Q8TE23)
T1 construct: expressed in transfected cells; host or cells: HEK293 derivative stably expressing Gα15 and hT1R2/hT1R3, clone S-9
T1 sequence (Q8TE23 20-839): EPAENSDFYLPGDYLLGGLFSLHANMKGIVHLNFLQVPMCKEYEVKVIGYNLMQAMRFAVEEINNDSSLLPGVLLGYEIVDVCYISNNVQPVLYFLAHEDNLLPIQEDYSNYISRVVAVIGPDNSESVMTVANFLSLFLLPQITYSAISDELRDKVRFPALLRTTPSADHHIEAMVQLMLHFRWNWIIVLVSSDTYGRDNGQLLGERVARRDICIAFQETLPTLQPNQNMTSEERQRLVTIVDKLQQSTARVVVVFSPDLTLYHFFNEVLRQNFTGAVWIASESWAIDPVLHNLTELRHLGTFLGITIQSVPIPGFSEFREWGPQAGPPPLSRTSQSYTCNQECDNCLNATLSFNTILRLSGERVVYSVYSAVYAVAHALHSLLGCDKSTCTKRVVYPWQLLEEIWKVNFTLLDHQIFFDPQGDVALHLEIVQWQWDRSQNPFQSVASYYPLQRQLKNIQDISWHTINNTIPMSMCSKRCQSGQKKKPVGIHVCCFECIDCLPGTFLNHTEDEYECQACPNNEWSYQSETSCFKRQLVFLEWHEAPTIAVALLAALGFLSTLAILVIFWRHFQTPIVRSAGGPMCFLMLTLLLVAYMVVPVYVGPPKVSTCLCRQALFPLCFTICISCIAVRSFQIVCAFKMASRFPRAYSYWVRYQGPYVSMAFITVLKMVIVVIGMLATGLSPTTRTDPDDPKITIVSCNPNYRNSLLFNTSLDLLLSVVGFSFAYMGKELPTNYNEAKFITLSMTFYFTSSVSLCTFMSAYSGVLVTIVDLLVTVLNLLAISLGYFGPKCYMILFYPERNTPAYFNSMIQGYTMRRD
T1 sequence (Q7RTX0 21-852): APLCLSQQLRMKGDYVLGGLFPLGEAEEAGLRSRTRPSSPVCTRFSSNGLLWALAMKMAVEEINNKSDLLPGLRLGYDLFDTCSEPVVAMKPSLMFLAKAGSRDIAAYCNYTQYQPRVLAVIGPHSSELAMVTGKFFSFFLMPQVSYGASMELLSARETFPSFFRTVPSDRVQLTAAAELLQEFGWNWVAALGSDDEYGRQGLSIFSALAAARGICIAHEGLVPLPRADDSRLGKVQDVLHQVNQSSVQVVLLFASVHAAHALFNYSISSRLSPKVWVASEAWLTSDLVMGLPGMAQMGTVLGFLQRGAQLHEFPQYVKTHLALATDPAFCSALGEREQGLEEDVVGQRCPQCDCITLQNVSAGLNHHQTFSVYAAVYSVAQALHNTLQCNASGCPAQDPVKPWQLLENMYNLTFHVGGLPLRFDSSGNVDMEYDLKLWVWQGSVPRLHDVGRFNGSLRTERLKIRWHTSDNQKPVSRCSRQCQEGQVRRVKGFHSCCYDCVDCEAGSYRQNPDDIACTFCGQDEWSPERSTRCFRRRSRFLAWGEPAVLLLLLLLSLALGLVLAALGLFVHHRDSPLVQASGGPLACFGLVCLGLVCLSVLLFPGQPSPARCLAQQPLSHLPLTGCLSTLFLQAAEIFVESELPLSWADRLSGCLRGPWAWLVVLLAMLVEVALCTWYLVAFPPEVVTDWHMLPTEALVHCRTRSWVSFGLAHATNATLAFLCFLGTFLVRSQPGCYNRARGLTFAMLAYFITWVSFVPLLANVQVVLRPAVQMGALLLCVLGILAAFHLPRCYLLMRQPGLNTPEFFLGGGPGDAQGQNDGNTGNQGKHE
Test: In vitro hT1R2/hT1R3-HEK293 taste receptor activation assay (FLIPR)
Assay type: cell-based
Settings: read-out: EC50 for activation of a hT1R2/hT1R3 sweet receptor expressed in HEK293 cell line
Outline: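 HEK293 cells stably expressing Gα15 and hT1R2/hT1R3 were loaded with Fluo-3AM (4 μM, 1 h, room temperature), then stimulated at room temperature in D-PBS. Peak fluorescence (ex 480/em 535 nm) was normalized to basal. Dose-responses were run in duplicate over 60 nM–30 μM, normalized to 400 mM D-fructose, and EC50 fitted by free-Hill non-linear regression.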

CC(C)CNC(=O)C(C)(C)c1ccc(-c2cncc(C#N)c2)cc1 [Compound 23, 2-(4-(5-cyanopyridin-3-yl)phenyl)-N-isobutyl-2-methylpropanamide]
EC50: 150 nM
